From the OPERA property sets (Mansouri et al. 2018)

details: not given

| SMILES | melting point [°C] | boiling point [°C] | log10 vapour pressure (mmHg) | ready biodegradability | log10 Koc (L/kg) | log10 Henry constant (atm·m³/mol) | log10 biodegradation half-life (days) |
| --- | --- | --- | --- | --- | --- | --- | --- |
| Cn1c(=O)cc(O)c2ccccc21 | 270 |  |  |  |  |  |  |
| C=CCCCCCCCCCCCCCCCCC | 23 | 329 | -4.42 |  |  |  |  |
| C=CCC(C)C | -154 | 53.9 | 2.43 | not readily biodegradable |  |  |  |
| NC(N)=S | 182 |  | -2.55 |  | 0.85 |  |  |
| CC(C)C1(C)N=C(c2nc3ccccc3cc2C(=O)O)NC1=O (stereo not given) | 221 |  |  | not readily biodegradable | 1.3 |  |  |
| CCCC(C)COC(C)=O (stereo not given) |  | 163 |  |  |  |  |  |
| ClCC1CO1 (stereo not given) | -41.6 | 117 | 1.22 | not readily biodegradable | 1 |  |  |
| CC(C)C1CC1 | -113 | 58.3 |  |  |  |  |  |
| O=C1c2ccccc2C(=O)c2c1cccc2[N+](=O)[O-] | 232 |  | -8.4 |  |  |  |  |
| N#CNC(=N)N | 211 |  |  | not readily biodegradable |  |  |  |
| CCCCCCCCCc1ccc2ccccc2c1 | 12 | 372 |  |  |  |  |  |
| CC(C#N)CCC#N (stereo not given) | -45 | 263 | -2.29 |  |  |  |  |
| CC(C)c1ccc(CO)cc1 | 28 | 249 |  | readily biodegradable |  |  |  |
| ClCc1cccc(CCl)c1 | 34.2 | 252 |  |  |  |  |  |
| c1ccc(Cn2cccc2)cc1 | 15 | 247 |  |  |  |  |  |
| CCCCCC[C@H](C)S |  |  | -0.147 |  |  |  |  |
| Cc1ccc(OC(=O)c2ccccc2)cc1 | 71.5 | 316 |  |  |  |  |  |
| OCC(F)(F)C(F)(F)C(F)(F)C(F)(F)C(F)(F)C(F)(F)C(F)(F)C(F)F | 56 |  |  |  |  |  |  |
| CC1=C[C@H](O)CC(C)(C)[C@H]1/C=C/C(C)=C/C=C/C(C)=C/C=C/C=C(C)/C=C/C=C(C)/C=C/C1=C(C)C[C@@H](O)CC1(C)C | 196 |  |  |  |  |  |  |
| NC(=O)CBr | 89 |  |  |  |  |  |  |
| CC(CCN(C)C)N(C)C (stereo not given) |  | 165 |  |  |  |  |  |

| SMILES | melting point [°C] | boiling point [°C] | log10 vapour pressure (mmHg) | ready biodegradability | log10 Koc (L/kg) | log10 Henry constant (atm·m³/mol) | log10 biodegradation half-life (days) |
| --- | --- | --- | --- | --- | --- | --- | --- |
| C=Cc1ccc(C)cc1C | -64 |  |  |  |  |  |  |
| FC(F)(F)c1nc2ccccc2[nH]1 | 210 |  |  |  |  |  |  |
| CCC(C)(C)C(C)(C)CC |  | 170 |  |  |  |  |  |
| O=S(=O)(c1ccc(Cl)cc1)c1ccc(Cl)cc1 | 148 |  |  | not readily biodegradable |  |  |  |
| C[C@H]1C=CC2C(C1)C2(C)C (stereo in doubt) |  | 169 |  |  |  |  |  |
| CC(C)CCC(C)O (stereo not given) |  | 151 | 0.307 |  |  |  |  |
| O=C(c1ccccc1)C1CC1 | -7.9 |  |  |  |  |  |  |
| CC(=O)c1ccc(O)cc1C | 128 | 313 |  |  |  |  |  |
| CCCNCC |  | 81 |  |  |  |  |  |
| FC(F)(F)c1cccc(C(c2ccccc2)(c2ccccc2)n2cncn2)c1 | 132 |  |  |  |  |  |  |
| Nc1ccc(S(=O)(=O)NCc2ccccc2)cc1 | 171 |  |  |  |  |  |  |
| C#CCCCCCC#C | -27.3 | 162 |  |  |  |  |  |
| CCCCCCCC1CCCC(=O)O1 (stereo not given) | -12 |  |  |  |  |  |  |
| CCCCCCCCCCCCCCCCCCI | 34 | 383 | -5.72 |  |  |  |  |
| C=C(C)C(=O)O | 16 | 163 | -0.0044 | readily biodegradable |  | -6.41 |  |
| CCC(Cl)Cl |  | 88.1 | 1.83 |  |  |  |  |
| CCc1nn(CCCN2CCN(c3cccc(Cl)c3)CC2)c(=O)n1CCOc1ccccc1 | 83.5 |  |  |  |  |  |  |
| C=Cc1cccc(C=C)c1 | -52.3 |  | -0.237 | not readily biodegradable |  |  |  |
| CCCC(O)CC/C=C/C=C/C#CC#C/C=C/CO (stereo not given) | 87 |  |  |  |  |  |  |
| COc1cc(C)cc(OC)c1 |  | 244 |  |  |  |  |  |
| O=C(O)c1ccccc1Br | 150 |  |  |  |  |  |  |

| SMILES | melting point [°C] | boiling point [°C] | log10 vapour pressure (mmHg) | ready biodegradability | log10 Koc (L/kg) | log10 Henry constant (atm·m³/mol) | log10 biodegradation half-life (days) |
| --- | --- | --- | --- | --- | --- | --- | --- |
| Oc1ccccc1N=Nc1ccccc1O | 173 |  |  |  |  |  |  |
| CCC(=O)OCc1ccccc1 |  | 220 |  |  |  |  |  |
| C=CC[C@]1(O)CC[C@H]2[C@@H]3CCC4=CC(=O)CCC4=C3C=C[C@@]21C | 120 |  |  |  |  |  |  |
| CCC(C)(C)c1ccc(O)c(C(C)(C)CC)c1 | 25 |  |  | not readily biodegradable |  |  |  |
| CN(C)Cc1ccccc1 |  | 181 |  | not readily biodegradable |  |  |  |
| FC(F)(Cl)Cl | -158 | -29.8 | 3.69 | not readily biodegradable |  | -0.465 |  |
| CCc1nc(N)nc(N)c1-c1ccc(Cl)cc1 | 234 |  |  |  |  |  |  |
| NCCOB(c1ccccc1)c1ccccc1 | 193 |  |  |  |  |  |  |
| CCCCCCCCCCCCCCCCCCCCCCCCCCCCCCC | 67.9 | 458 | -10.9 |  |  |  | 2.44 |
| CCC(C)(Cl)CC |  | 116 |  |  |  |  |  |
| Brc1cccs1 |  | 150 | 1.37 |  |  |  |  |
| ClCc1cc(Cl)cc(Cl)c1 | 36 |  |  |  |  |  |  |
| CC(C)CC(C)(C)O |  | 133 |  |  |  |  |  |
| CCOC(=O)n1ccn(C)c1=S | 124 |  |  |  |  |  |  |
| CCNc1nc(NC(C)C(C)C)nc(SC)n1 (stereo not given) | 65 |  | -5.85 |  |  |  |  |
| CCCCCCCCCCCCCCCCCC(=O)NCO |  |  |  | readily biodegradable |  |  |  |
| FC(F)(F)C(F)(F)C(F)(F)C(F)(F)C(F)(F)C(F)(F)C(F)(F)C(F)(F)C(F)(F)C(F)(F)C(F)(F)C(F)(F)C(F)(F)C(F)(F)C(F)(F)C(F)(F)C(F)(F)C(F)(F)C(F)(F)C(F)(F)C(F)(F)C(F)(F)C(F)(F)C(F)(F)F | 189 |  |  |  |  |  |  |
| CCOc1cc(Oc2ccc(C(F)(F)F)cc2Cl)ccc1[N+](=O)[O-] | 84 | 358 | -6.7 |  | 5 |  |  |
| CC=CCC | -146 | 36.7 |  |  |  |  |  |
| Nc1ccc(C(=O)O)cn1 | 312 |  |  |  |  |  |  |
| C#Cc1ccccc1 | -44.8 | 143 | 0.314 |  |  |  |  |

| SMILES | melting point [°C] | boiling point [°C] | log10 vapour pressure (mmHg) | ready biodegradability | log10 Koc (L/kg) | log10 Henry constant (atm·m³/mol) | log10 biodegradation half-life (days) |
| --- | --- | --- | --- | --- | --- | --- | --- |
| Clc1cc(Cl)c(-c2c(Cl)cc(Cl)c(Cl)c2Cl)cc1Cl | 83 |  |  |  |  |  |  |
| CCOC(CCl)OCC |  | 157 |  |  |  |  |  |
| Cc1cc(C)cc(C(C)(C)C)c1 | -18 | 207 |  |  |  |  |  |
| COc1cc2c(c3oc(=O)c4c(c13)CCC4=O)[C@@H]1CCO[C@@H]1O2 | 288 |  |  |  |  |  |  |
| COc1c(C(C)C)oc2cc3oc(=O)ccc3cc12 | 85 |  |  |  |  |  |  |
| CCOC(=O)c1cccnc1 | 8.5 | 224 |  |  |  |  |  |
| CCN(CC)CC(=O)Nc1c(C)cc(C)cc1C | 44 |  |  |  |  |  |  |
| Cc1cc(C)c(O)cc1C | 72 | 232 | -2.17 |  |  |  |  |
| CC[Si](CC)(CC)CC |  | 155 | 0.699 |  |  |  |  |
| CC(=O)C1(O)CCCCC1 |  | 126 |  |  |  |  |  |
| CC(C)(C)C(=O)Cl |  | 107 |  |  |  |  |  |
| C=CC(C)Cl (stereo not given) |  | 64.5 | 2.18 |  |  |  |  |
| C=CC(C)(C)C(=O)O | -6 | 185 |  |  |  |  |  |
| CCCCCCCCCCCCCCCC(OC)OC | 10 |  |  |  |  |  |  |
| Clc1nc(Cl)nc(Nc2ccccc2Cl)n1 | 160 |  | -8.21 |  | 3 |  |  |
| CC(CO)N(C)C (stereo not given) |  | 150 |  |  |  |  |  |
| O=[N+]([O-])c1cc(Cl)cc(Cl)c1O | 122 |  |  | not readily biodegradable |  |  |  |
| CCCCNC(=O)OCC(C)(CCC)COC(N)=O (stereo not given) | 50 |  |  |  |  |  |  |
| Cc1ccc(-c2cccc(C)c2)cc1 | 14.5 | 289 |  |  |  |  |  |
| O=C1C=CC(=O)O1 | 52.8 | 202 | -0.602 | readily biodegradable |  |  |  |
| CCCCC(CC)COP(=O)(OCC(CC)CCCC)OCC(CC)CCCC (stereo not given) | -74 |  | -7.08 | not readily biodegradable |  |  |  |

same assay, conditions: fish

| SMILES | log10 BCF | log10 biotransformation half-life (days) |
| --- | --- | --- |
| NC(N)=S | 0.3 |  |
| N#CNC(=N)N | 0.49 |  |
| C=Cc1cccc(C=C)c1 | 2.54 | 0.59 |
| CN(C)Cc1ccccc1 | 1.15 |  |
| FC(F)(Cl)Cl | 0.79 |  |
| Clc1cc(Cl)c(-c2c(Cl)cc(Cl)c(Cl)c2Cl)cc1Cl |  | 2.59 |
| CCCCC(CC)COC(=O)CC(C(=O)OCC(CC)CCCC)S(=O)(=O)O (stereo not given) | 0.97 |  |
| O=[N+]([O-])c1cc(Cl)cc(Cl)c1O | 1.32 |  |
| CCCCC(CC)COP(=O)(OCC(CC)CCCC)OCC(CC)CCCC (stereo not given) | 1.7 | -0.29 |
